Melting point data for three molecules are collected here from patent publication US20030162814A1, “N-substituted 1-amino-1,1-dialkylcarboxylic acid derivatives” (priority 2000, published 2003).

As for `CC(=O)O.CC(C)(C)NS(=O)(=O)c1ccccc1-c1ccc(NC(=O)C(C)(C)Nc2cccc(C(=N)N)c2)cc1`, the melting point came out at 153 °C.

Take `CC(C)(Nc1cccc(C(=N)N)c1)C(=O)Nc1ccc(-c2ccccc2S(N)(=O)=O)cc1.O=C(O)C(F)(F)F`: the melting point is 197 °C.

With `CC(C)(C)NS(=O)(=O)c1ccccc1-c1ccc(NC(=O)C(C)(C)Nc2cccc(C#N)c2)cc1` [CB, N-(2′-tert-butylsulfamoyl-biphenyl-4-yl)-2-(3-cyanophenylamino)-2-methylpropionamide], the melting point lay in the range of 190 to 193 °C.
